For data set [1], the target named is T1, FLT3 kinase (Homo sapiens, UniProt P36888).
T1 construct: purchased Invitrogen
T1 sequence (P36888 27-993): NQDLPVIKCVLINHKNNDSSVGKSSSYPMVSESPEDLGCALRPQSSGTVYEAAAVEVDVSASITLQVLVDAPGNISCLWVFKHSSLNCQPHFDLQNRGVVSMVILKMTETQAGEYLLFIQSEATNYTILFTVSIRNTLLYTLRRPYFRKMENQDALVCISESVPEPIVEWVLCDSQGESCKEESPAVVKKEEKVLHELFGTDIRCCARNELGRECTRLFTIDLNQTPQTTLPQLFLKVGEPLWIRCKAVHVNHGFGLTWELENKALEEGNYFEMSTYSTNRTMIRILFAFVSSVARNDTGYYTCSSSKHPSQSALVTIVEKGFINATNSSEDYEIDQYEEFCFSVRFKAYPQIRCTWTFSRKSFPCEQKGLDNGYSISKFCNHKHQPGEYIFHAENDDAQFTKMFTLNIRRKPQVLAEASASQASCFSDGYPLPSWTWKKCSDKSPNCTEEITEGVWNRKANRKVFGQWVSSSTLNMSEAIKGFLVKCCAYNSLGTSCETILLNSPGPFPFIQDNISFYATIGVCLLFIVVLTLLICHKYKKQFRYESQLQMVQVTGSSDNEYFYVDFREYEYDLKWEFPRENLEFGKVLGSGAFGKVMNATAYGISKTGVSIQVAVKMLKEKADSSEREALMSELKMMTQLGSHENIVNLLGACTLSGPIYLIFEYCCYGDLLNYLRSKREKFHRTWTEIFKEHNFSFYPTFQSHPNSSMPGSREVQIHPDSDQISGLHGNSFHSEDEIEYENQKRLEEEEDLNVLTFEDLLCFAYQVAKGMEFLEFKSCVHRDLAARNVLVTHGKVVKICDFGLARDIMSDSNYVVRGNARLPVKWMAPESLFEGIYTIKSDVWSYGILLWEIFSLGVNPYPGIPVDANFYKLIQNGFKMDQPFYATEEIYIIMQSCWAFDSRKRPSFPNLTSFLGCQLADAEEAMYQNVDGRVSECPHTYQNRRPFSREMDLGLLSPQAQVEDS
Put plainly: Biochemical enzyme inhibition assay (microfluidics, Caliper EZ Reader II), FLT3. The note with it: for IC50: in vitro kinase assay, 60 min pre-incubation, ATP 190 µM, three independent experiments, read-out: FLT3 IC50 (nM) ± SD; for LE: ligand efficiency for FLT3 inhibition.

The test system of data set [2] is FLT3-driven cell lines. In words: Cell-based studies, FLT3-driven cell lines overall. The note with it: range over the FLT3 cell lines. An excerpt:
(§1) Stable BaF3 populations expressing activated FLT3 were generated by retroviral spinfection with the appropriate mutated plasmid followed by selection and growth factor withdrawal as previously described. The BaF3 cell line was originally obtained from the laboratory of Charles Sawyers and has not been authenticated. MV411 and Molm14 cells were obtained from the laboratory of Scott Kogan and authenticated by Promega STR analysis in June 2013. All cell lines were mycoplasma-free. Cells were incubated with compounds for 48 hours and proliferation was assessed using CellTiter-Glo (Promega; Madison, WI) according to the manufacturer’s recommendation on a SpectraMax M3 microplate reader using SpectraMax Software (Molecular Devices; Sunnyvale, CA). All cell viability data shown is reflective of experiments performed a minimum of three times. […]
S13. […]
2013. […] Cells were incubated with compounds for 48 hours and proliferation was assessed using CellTiter -Glo (Promega; Madison, WI) according to the manufacturer’s recommendation on a SpectraMax M3 microplate reader using SpectraMax Software (Molecular Devices; Sunnyvale, CA). […]

Data set [3] relates to Molm14 par. Put plainly: Cell proliferation (CellTiter-Glo, 48 h), Molm14 par. The format is cell-based. Particulars: Homo sapiens, MOLM-14.
Text: as §1
S13. Cell Cultures: Stable BaF3 populations expressing activated FLT3 were generated by retroviral spinfection with the appropriate mutated plasmid followed by selection and growth factor withdrawal as previously described .4 The BaF3 cell line was originally obtained from the laboratory of Charles Sawyers and has not been authenticated. MV411 and Molm14 cells were obtained from the laboratory of Scott Kogan and authenticated by Promega STR analysis in June
2013. All cell lines were mycoplasma -free. Cells were incubated with compounds for 48 hours and proliferation was assessed using CellTiter -Glo (Promega; Madison, WI) according to the manufacturer’s recommendation on a SpectraMax M3 microplate reader using SpectraMax Software (Molecular Devices; Sunnyvale, CA). All cell viability data shown is reflective of experiments performed a minimum of three times.
For orientation: In ATP-based viability assays light output follows the ATP content of the culture.

In data set [4] the target is c-KIT (Homo sapiens, UniProt P10721). In words: Biochemical kinase selectivity assay, c-KIT.

Data on two compounds can be found in publication PMC5829162, “Rational Design, Synthesis and Biological Evaluation of Pyrimidine-4,6-diamine derivatives as Type-II inhibitors of FLT3 Selective Against c-KIT” (Scientific Reports, 2018).

Where two headings read alike, the source gives them in different places.

Broadly, the IC50 is the concentration at which inhibition is half-maximal. One may read the melting point as the temperature, or range, at which the solid turns liquid. By GI50 is commonly meant the concentration that inhibits growth by half. Low values mean more potent growth inhibition, high ones less potent growth inhibition.

Chain of c-KIT (P10721 26-976): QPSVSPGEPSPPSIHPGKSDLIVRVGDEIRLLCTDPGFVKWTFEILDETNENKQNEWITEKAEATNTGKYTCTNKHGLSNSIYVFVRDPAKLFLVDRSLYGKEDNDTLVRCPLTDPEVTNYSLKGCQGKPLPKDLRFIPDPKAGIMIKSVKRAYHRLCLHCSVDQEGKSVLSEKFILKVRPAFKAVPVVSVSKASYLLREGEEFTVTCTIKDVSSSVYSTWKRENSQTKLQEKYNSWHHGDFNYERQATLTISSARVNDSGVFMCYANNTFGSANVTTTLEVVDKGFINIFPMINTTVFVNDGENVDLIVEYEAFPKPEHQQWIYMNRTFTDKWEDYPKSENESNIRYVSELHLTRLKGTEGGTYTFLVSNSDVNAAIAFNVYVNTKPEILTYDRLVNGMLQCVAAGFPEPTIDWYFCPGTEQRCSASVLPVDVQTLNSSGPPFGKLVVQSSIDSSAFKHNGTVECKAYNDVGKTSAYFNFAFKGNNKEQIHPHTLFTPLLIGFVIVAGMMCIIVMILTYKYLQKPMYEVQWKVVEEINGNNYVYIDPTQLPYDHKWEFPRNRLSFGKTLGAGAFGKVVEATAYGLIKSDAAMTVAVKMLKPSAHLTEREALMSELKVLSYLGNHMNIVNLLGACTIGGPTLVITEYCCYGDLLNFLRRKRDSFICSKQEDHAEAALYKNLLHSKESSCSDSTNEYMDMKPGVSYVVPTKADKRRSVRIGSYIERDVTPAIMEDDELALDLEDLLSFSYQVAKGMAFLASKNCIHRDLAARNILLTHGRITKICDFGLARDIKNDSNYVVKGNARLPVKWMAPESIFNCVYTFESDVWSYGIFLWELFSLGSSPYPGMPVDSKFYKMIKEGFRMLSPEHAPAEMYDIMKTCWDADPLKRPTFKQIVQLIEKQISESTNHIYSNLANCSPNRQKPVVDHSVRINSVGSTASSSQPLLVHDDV

For the compound `Cn1nc(C(C)(C)C)cc1NC(=O)Cc1ccc(Nc2cc(Nc3ccc(S(C)(=O)=O)cc3)ncn2)cc1` [13a, 2-(4-(6-(4-(Methylsulfonyl)phenylamino)pyrimidin-4-ylamino)phenyl)-N-(3-tert-butyl-1-methyl-1H-pyrazol-5-yl)acetamide], the melting point is 134 to 136 °C. In data set [1] (enzymatic level), the “fold less inhibition on other closely related kinases versus FLT3” value is reported as greater than 100 fold. In data set [1], the IC50 was 13.9 nM and the LE was 0.28. In data set [2], this compound returned a GI50 of 0.009 to 2 µM. Further, halving of growth in data set [3] (GI50) required 0.0244 µM. In data set [4] (as printed in Fig. 2, read-out: cKit IC50), the IC50 came to 8800 nM. Also, in data set [4] (in vitro kinase assay, read-out: c-KIT IC50 (nM) ± SD), the IC50 is 8800 nM. The “selectivity for FLT3 over c-KIT” value in data set [4] (in vitro kinase assays) was greater than 500 fold.
In turn, `CC(C)(C)c1cc(NC(=O)Cc2ccc(Nc3cc(Nc4ccc(S(C)(=O)=O)cc4)ncn3)cc2)no1` [13k, 2-(4-(6-(4-(Methylsulfonyl)phenylamino)pyrimidin-4-ylamino)phenyl)-N-(5-tert-butylisoxazol-3-yl)acetamide] had a melting point of 168 to 170 °C. Besides, in data set [1] (enzymatic FLT3 IC50 compared with 13a), the “fold less active than 13a on FLT3” value is ~ 5 fold. In addition, in data set [1], the IC50 amounted to 63 nM and the LE came out at 0.27. This compound returned a GI50 in data set [3] of 0.0198 µM.
